As usually defined, the MIC is the lowest concentration found to suppress growth.

For one assay, the system named is Fusobacterium spp. The experiment in a line: antibacterial activity (MIC), agar plate dilution method. Type of assay: cell-based. The following applies: 17 strains of Fusobacterium spp.; anaerobic, 37° C. The protocol:
There are plural reports about the relationship between intestinal bacteria and inflammatory bowel disease, and it is thought that Fusobacterium spp., one of the intestinal bacteria is a pathogenic bacteria causing inflammatory bowel disease. […] The antibacterial activity (minimum inhibitory concentration (MIC)) was assayed by agar plate dilution method which is based on Clinical and laboratory standards institute (CLSI). The medium used herein was Brucella medium with sheep blood. […] The bacterial suspension was inoculated onto Brucella agar with sheep blood which contains the present compound or any one of the comparative drugs, and incubated at 37° C. under an anaerobic condition.

The test system of assay [1] is Mycobacterium avium subspecies paratuberculosis (MAP). The assay is described as follows: antibacterial activity (MIC), broth microdilution method. It is filed as cell-based. The following applies: 336 h. The protocol: The chronic enterocolitis of ruminants which is caused by Mycobacterium avium subspecies paratuberculosis (MAP) is similar to Crohn's disease. […] Thus, the antibacterial activity of the present compound against MAP was evaluated. The used comparative drugs for the present compound were rifaximin (RFX), ciprofloxacin (CPFX), metronidazole (MTZ), clarithromycin (CAM), rifabutin (RBT), and clofazimine (CFZ).
The antibacterial activity (minimum inhibitory concentration (MIC)) was assayed by broth microdilution method which is based on Clinical and laboratory standards institute (CLSI).
The 5 strains of MAP were inoculated onto Middlebrook 7H9 agar containing 10% dubos oleic albumin complex (OADC), Tween 80 (0.5 g/L), mycobactin J (2 mg/L), and 1.5% agar, and pre-cultured at 37° C. under an aerobic condition for 14 days. After the pre-culture, the bacterial cell was scraped out from the agar, and prepared to the turbidity of 0.5 Mcfarland standard using Middlebrook 7H9 broth containing 10% dubos oleic albumin complex (OADC), Tween 80 (0.5 g/L), and mycobactin J (2 mg/L)]. The 10-fold diluted solution of the bacterial suspension was inoculated onto Middlebrook 7H9 broth 96-well plate which contains the present compound or any one of the comparative drugs, and incubated at 37° C. under an aerobic condition for 14 days.
After the incubation, the bacterial growth in each well of the 96-well plate was visually checked. The minimum concentration at which the bacterial growth was not observed, compared with the result of the well containing neither present compound nor comparative drug was determined as MIC of the present compound or each comparative drug against each test bacterium.

A further assay concerns TNF-α production. The assay is described as follows: inhibition of LPS-induced TNF-α production in human peripheral blood (ELISA). Type of assay: cell-based. The following applies: human peripheral blood, 24 hours; for inhibitory activity for TNF-α production over concentration range: 1, 3, 10, 30, 100 μM. The protocol: The LPS solution which was adjusted to 2 μg/mL with RPMI 1640 medium was added to 48-well plate in the amount of 250 μL/well. The each diluted solution of each test compound and the diluted solution of the solvent control were added to 3 wells for each concentration in the amount of 50 μL/well, 4-fold diluted solution of human peripheral blood was added to each well (200 μL/well), and the wells were incubated at 37° C. in 5% CO2 for 24 hours. As LPS (−) control, RPMI 1640 medium without added LPS was prepared in the same manner. The final concentrations of each test sample were adjusted to 0, 1, 3, 10, 30, and 100 μM, and the final concentration of prednisolone was adjusted to 0.3 μM. 24 hours later from the incubation, each supernatant was collected and stored at −80° C. until the measurement of the TNF-α concentration.
The TNF-α concentration was measured by ELISA with Human TNF-alpha Quantikine ELISA Kit (R & D Systems). Each sample was unfrozen at room temperature, and diluted with Calibrator Diluent RD6-35 (1×) of the kit by 10-fold. The 10-fold diluted supernatant and the TNF-α standard solution were added on TNF-α microplate, and reacted according to the operating manual of the kit. After the coloring, the absorbance at wave length of 450 nm was measured with a microplate reader (Multiskan FC; Thermo Fisher […]), and the calibration curve was prepared with an analysis software (Skanit Software 3.1.0.4 RE for Multiskan FC (ja)) to read the TNF-α concentration of each sample. Calibration curve used a 4-parameter logistic curve.
The inhibition rates were presented as the mean±standard deviation using Microsoft Excel 2010. For each blood donor, the TNF-α production rate under each compound concentration was calculated with the TNF-α concentration in the supernatant of the solvent group as 100%.
The results are averages of the measurements obtained from the human peripheral blood of three volunteers.
(ELISA stands for enzyme-linked immunosorbent assay.)

In assay [2] the test system is naive T cell transfer model of colitis. The experiment in a line: naive T cell transfer model of colitis (Crohn's disease mouse model), histological scoring of large intestine. The following applies: from 2nd week after transplantation for 2 weeks; present compound, CPFX, RFX oral once a day 10 mg/kg; antibody 25 mg/kg i.p. twice a week; 4th week. Type of assay: in vivo. The text has this:
From spleen of Balb/c mouse, naive T cell (CD4+CD62L+CD44−) was isolated with antibody-coated magnetic beads. The isolated naive T cell (5×10^5 cells/mouse) was transplanted in abdominal cavity of SCID mouse which is a severe combined immunodeficiency animal. The present compound was orally administered to the mouse once a day at each dose defined in Table 1 below, from the first day of the transplantation for Test 1, or from the 2nd week after the transplantation for Test 2, until 5 weeks after the transplantation. [table] […] The anti-TNF-α antibody was intraperitoneally administered to the mouse twice a week at each dose defined in Table 2 below, from the 2nd week after the transplantation, for 2 weeks. [table] At 5th week for Tests 1 and 2, and at 4th week for Test 3, the large intestine was removed, and the length and weight of the large intestine were measured. In addition, the large intestine was fixed with formalin to carry out pathological analysis. From the removed large intestine, the anus part, the center part, and the cecal part were cut out each in about 0.5 cm, and each part was fixed with formalin. The paraffin block thereof was prepared, sliced, and subjected to H&E staining. The H&E stained slice was examined with a microscope to score it histologically. The histological scoring was carried out by scoring the inflammatory cell infiltrate, the Goblet cell loss, and the hyperplasia of mucosal epithelium, based on the standard (0-4) defined in Table 3 below. [table]

The next assay relates to TNBS-induced enteritis. The experiment in a line: TNBS-induced enteritis model. Type of assay: in vivo, rat. The following applies: 100 mg/kg orally twice a day; 12 rats per group. The protocol: An enteritis animal model induced with 2,4,6-trinitrobenzenesulfonic acid (TNBS) is widely used as Crohn's disease model since the inflammatory finding is pathologically similar to that of human Crohn's disease. In addition, the enteritis model was used in the non-clinical study of mesalazine that is a medicament for treating Crohn's disease. Thus, this enteritis model was used as Crohn's disease model for evaluating the present compound.
Rats were made to be fasted for 24 or 48 hours, and the body weight were measured. The rats were laparotomized under isoflurane anesthesia, and 50% ethanol (0.25 mL) containing 60 mg/mL 2,4,6-trinitrobenzenesulfonic acid (TNBS) was injected into the large intestine from the cecum side toward the anal side to induce the injury. Each group composed of 12 rats was set, and vehicle, the present compound, or salazosulfapyridine (SASP) which is an already-existing drug for treating inflammatory bowel disease were administered for 7 days from the first day after the injection of TNBS. On the 8th day, each rat was laparotomized under anesthesia and killed by exsanguination. The large intestine was removed from the anus to the cecum, the large intestine was longitudinally incised, and the incised large intestine was washed with a cold saline. The lesion area of the large intestine was photographed with a digital camera. The area of the lesion area in the photograph of the large intestine was measured using image analyzing program.
Each compound was orally administered at a dose of 100 mg/kg twice a day from one day after inducing enteritis with TNBS. Each area of the lesion area on the 8th day was compared.

The next assay relates to DSS-induced colitis. The experiment in a line: DSS-induced colitis model, stool scores. It is filed as in vivo, rat. The text has this:
A colitis model induced by dextran sulfate sodium (DSS) is widely used as an experimental ulcerative colitis model having similarities of human ulcerative colitis regarding suppression of weight gain, colitis symptoms such as bloody stools and diarrhea, and injury formation in the large intestine. The effect of the present compound on the ulcerative colitis model was examined, and it was compared with salazosulfapyridine (SASP) clinically used as a therapeutic agent for ulcerative colitis.
Symptoms of colitis were induced by allowing rats to freely drink 3% dextran sulfate sodium (DSS) solution for 10 days. […] For the observation of stool symptoms, the degree of stool condition was scored as the score of stool firmness (Stool Consistency Score: 0, 1, 2, 3) and blood stool (Bloody Stool Score: 0, 1, 2, 3). The total of Stool Consistency Score and Bloody Stool Score was taken as the Total Stool Score. Each group was composed of 8 animals. Salazosulfapyridine (SASP), which is an already-existing drug for treating inflammatory bowel disease, the present compound or the vehicle were administrated for 10 days from the start date of 3% DSS freely drinking.

Where [3] appears, read: 11th day, present compound 1, 3, 10 mg/kg (P<0.01) or SASP 100 mg/kg (P<0.05) orally twice a day, Dunnett's test.

≈ marks a conversion by molar mass, not a printed value.

Regarding `Cc1ncc([N+](=O)[O-])n1CCO` [MTZ, metronidazole], the MIC against Fusobacterium spp. was 0.03 to 0.5 µg/mL (≈ 0.175 to 2.92 µM); in assay [1], > 128 µg/mL.

`CC(C)/N=c1\cc2n(-c3ccc(Cl)cc3)c3ccccc3nc-2cc1Nc1ccc(Cl)cc1` [CFZ, clofazimine] came in with an MIC in assay [1] of 0.12 to 0.5 µg/mL (≈ 0.253 to 1.06 µM).

With `Nc1ccc(O)c(C(=O)O)c1` [5-ASA, 5-aminosalicylic acid], the “inhibitory activity for TNF-α production over concentration range” value in the assay on TNF-α production is listed as “no inhibitory activity”.

Take `O=C(O)c1cn(C2CC2)c2cc(N3CCNCC3)c(F)cc2c1=O` [CPFX, ciprofloxacin]: the “histological score (Test 3, comparative study)” value in assay [2] was “little or no inhibitory effect”. The inhibition at 100 µM in the assay on TNF-α production (100 μM, read-out: inhibitory effect on TNF-α production at 100 μM) is < 50%. The “inhibitory activity for TNF-α production over concentration range” value in the assay on TNF-α production is listed as “dose-dependent inhibitory effect at a concentration of 30 μM or more”. Moreover, the MIC with Fusobacterium spp. was in the range of 2 to 8 µg/mL (≈ 6.04 to 24.1 µM); in assay [1], 0.25 to 0.5 µg/mL (≈ 0.754 to 1.51 µM).

For `CO[C@H]1/C=C/O[C@@]2(C)Oc3c(C)c(O)c4c(c3C2=O)C2=NC3(CCN(CC(C)C)CC3)NC2=C(NC(=O)/C(C)=C\C=C\[C@H](C)[C@H](O)[C@@H](C)[C@@H](O)[C@@H](C)[C@H](OC(C)=O)[C@@H]1C)C4=O` [RBT, rifabutin], the MIC in assay [1] fell in the range of 0.25 to 1 µg/mL (≈ 0.295 to 1.18 µM).

In the case of `O=C(O)c1cc(/N=N/c2ccc(S(=O)(=O)Nc3ccccn3)cc2)ccc1O` [SASP, salazosulfapyridine, reference compound], the “number of death during the treatment” value in the assay with TNBS-induced enteritis was “two”. The “day from which suppression of stool score deterioration was observed” value in the assay on DSS-induced colitis (100 mg/kg orally twice a day) is given as “from the 9th day”. Further, the deaths in the assay with DSS-induced colitis (100 mg/kg orally twice a day, 8 animals per group) was determined as 2. The “bloody stool score vs vehicle control” value in the assay with DSS-induced colitis (11th day, present compound 1 mg/kg (P<0.05), 3, 10 mg/kg (P<0.01) or SASP 100 mg/kg orally twice a day, Dunnett's test) is recorded as “not significant”. Also, in the assay with DSS-induced colitis (setting [3]), the “stool firmness (Stool Consistency Score) vs vehicle control” value was “significant differences” and the “total stool score vs vehicle control” value was “significant differences”.

Regarding `CO[C@H]1/C=C/O[C@@]2(C)Oc3c(C)c(O)c4c(O)c(c5c(nc6cc(C)ccn65)c4c3C2=O)NC(=O)/C(C)=C\C=C\[C@H](C)[C@H](O)[C@@H](C)[C@@H](O)[C@@H](C)[C@H](OC(C)=O)[C@@H]1C` [RFX, rifaximin], in assay [2], the “histological score (Test 3, comparative study)” value was “little or no inhibitory effect”. Besides, the “inhibitory activity for TNF-α production over concentration range” value in the assay with TNF-α production is given as “no inhibitory activity”. The MIC in assay [1] is 1 to 2 µg/mL (≈ 1.27 to 2.54 µM).

On to `CC[C@H]1OC(=O)[C@H](C)[C@@H](O[C@H]2C[C@@](C)(OC)[C@@H](O)[C@H](C)O2)[C@H](C)[C@@H](O[C@@H]2O[C@H](C)C[C@H](N(C)C)[C@H]2O)[C@](C)(OC)C[C@@H](C)C(=O)[C@H](C)[C@@H](O)[C@]1(C)O` [CAM, clarithromycin], for which, in assay [1], the MIC was 0.12 to 0.25 µg/mL (≈ 0.16 to 0.334 µM).

The record behind these values is patent US20210317111A1, “NOVEL MEDICAMENT FOR TREATING INFLAMMATORY BOWEL DISEASE” (OTSUKA PHARMACEUTICAL CO., LTD., priority 2018, published 2021).
